Reference: patent US11780845B2 (Relay Therapeutics, Inc., priority 2019, dated 2023)
pIC50: −log10 of the molar value.

Test system: SNU-16
Assay: Cell SNU-16 assay
Format: cell-based
Settings: Homo sapiens, SNU-16, SNU-16 cells

Structure (SMILES)	pIC50
C=CC(=O)N[C@H]1Cc2ccc(-c3c(-c4ccc(Oc5nccc(C)n5)cc4)c4c(N)ncnc4n3C)cc2C1 (single isomer, unassigned) [Example 928]	6.00 to 6.60
C=CC(=O)N1CC[C@@H](c2c(-c3ccc(Oc4cccc(C)n4)cc3)c3c(N)ncnc3n2C)[C@H]1C (single isomer, unassigned) [Example 940]	4.00 to 6.00
C=C(C)C(=O)Nc1cc(C)c(-c2c(C3=CC[C@H](C(=O)N4CCCC4)CC3)c3c(N)ncnc3n2C)c(C)c1 (single isomer, unassigned) [Example 1486]	4.00 to 6.00
C#Cc1cc(C)c(-c2cn3ncnc(N)c3c2C2=CC[C@@H](C(=O)N3CCC[C@H]3C)CC2)cn1 [Example 1380]	6.00 to 6.60
C#Cc1ncc(-c2c(-c3ccc(C(=O)N4CCCC4)cc3)c3c(N)ncnc3n2C)cn1 [Example 968]	6.00 to 6.60
C=C(C)C(=O)Nc1ccc(-c2c(C3=CC[C@H](C(=O)N4CCCC4)CC3)c3c(N)ncnc3n2C)c(OC)c1 [Example 1480]	6.00 to 6.60
C=Cc1nc2ccc(-c3c(-c4ccc(C(=O)N5CCCC5)cc4)c4c(N)ncnc4n3C)cc2n1C [Example 895]	4.00 to 6.00
C#Cc1cc2ccc(-c3c(-c4ccc(Oc5nccc(C)n5)c(F)c4)c4c(N)ncnc4n3C)cc2cn1 [Example 1404]	6.00 to 6.60
C=C(C)C(=O)Nc1ccc(-c2c(C3=CC[C@@H](C(=O)N4CCC[C@@H]4C)CC3)c3c(N)ncnc3n2C)cc1 [Example 1003]	6.60 to 7.00

More lines, now with the values ahead:

pIC50	Structure (SMILES)
6.60 to 7.00	C#Cc1ncc(-c2c(-c3ccc(Oc4nccc(C)n4)c(F)c3)c3c(N)ncnc3n2C)c(C)n1 [Example 1153]
≥ 7.00	C#Cc1nc2cc(-c3c(-c4ccc(Oc5nccc(C)n5)c(F)c4)c4c(C)ncnc4n3C)ccc2[nH]1 [Example 1364]
≥ 7.00	CC(=O)C(=O)Nc1ccc(-c2c(-c3ccc(C(=O)N4CCc5ccccc54)cc3)c3c(N)ncnc3n2C)cc1 [Example 980]
≥ 7.00	C=CC(=O)Nc1ccc(-c2c(-c3ccc(C(=O)NCC(C)C)cc3)c3c(N)ncnc3n2C)cc1 [Example 990]
≥ 7.00	C=C(CN(C)C)C(=O)Nc1ccc(-c2c(-c3ccc(C(=O)NCC4(F)COC4)cc3)c3c(N)ncnc3n2C)cc1 [Example 1044]
≥ 7.00	C=C(C)C(=O)Nc1ccc(-c2c(C3=CC[C@H](C(=O)N4CCCC45COC5)CC3)c3c(N)ncnc3n2C)cc1 (single isomer, unassigned) [Example 913]
6.60 to 7.00	C=CC(=O)NC1CC=C(c2c(-c3ccc(Oc4nccc(C)n4)c(F)c3)c3c(N)ncnc3n2C)CC1 (centres unmarked) [Example 1370]
≥ 7.00	C#Cc1cnc2cc(-c3c(-c4ccc(Oc5nccc(C)n5)c(F)c4)c4c(N)ncnc4n3C)ccc2n1 [Example 1363]
≥ 7.00	C#Cc1cc(C)c(-c2c(C3=CC[C@@H](C(=O)N4CCC[C@H]4CO)CC3)c3c(N)ncnc3n2C)cn1 (single isomer, unassigned) [Example 1231]
6.60 to 7.00	C=C1C(=O)N(c2ccc(-c3c(-c4ccc(Oc5nccc(C)n5)cc4)c4c(N)ncnc4n3C)cc2)C[C@@H]1C [Example 1133]
6.00 to 6.60	C=C(C)C(=O)Nc1ccc(-c2c(C3=CC[C@@H](C(=O)N4CC[C@@H]5C[C@@H]54)CC3)c3c(N)ncnc3n2C)cc1 [Example 1037]
≥ 7.00	C#Cc1cc(OC)c(-c2c(C3=CC[C@H](C(=O)N4CCC[C@H]4C#N)CC3)c3c(C)ncnc3n2C)c(C)n1 [Example 1473]

Same assay, conditions: SNU-16 cells

pIC50	Structure (SMILES)
4.00 to 6.00	C#Cc1cc(OC)c(-c2c(C3=CC[C@@H](C(=O)N4CCC[C@H]4C#N)CC3)c3c(C)ncnc3n2C)c(C)n1 [Example 1475]
≥ 7.00	C#Cc1cc(C)c(-c2c(-c3ccc(Oc4nccc(C)n4)c(F)c3)c3c(Cl)ncnc3n2C)c(F)n1 [Example 1417]
≥ 7.00	C=CC(=O)N1CC(c2c(-c3ccc(C(=O)c4nccc(C)n4)cc3F)c3c(N)ncnc3n2C)C[C@@H]1C (some centres unmarked) [Example 886]
6.00 to 6.60	C#Cc1ncc(-c2c(-c3ccc(Oc4nccc(C)n4)cc3)c3c(N)ncnc3n2C)cn1 [Example 1000]
6.00 to 6.60	C=C(C)C(=O)Nc1ccc(-c2c(C3=CC[C@](C)(C(=O)N4CCCC4)CC3)c3c(N)ncnc3n2C)cc1 [Example 1024]
4.00 to 6.00	CC1=CCN(c2ccc(-c3c(-c4ccc(Oc5nccc(C)n5)cc4)c4c(N)ncnc4n3C)cc2)C1=O [Example 924]
4.00 to 6.00	C=C(C)C(=O)Nc1ccc(-c2c(-c3ccc(C(=O)N4CCCC4)cc3)c3c(N)n[nH]c(=O)c3n2C)cc1 [Example 879]

Target: FGFR2 (Homo sapiens (Human), UniProt P21802)
Assay: Biochemical FGFR2 Caliper assay
Settings: not given

Sequence of FGFR2 (P21802 22-821): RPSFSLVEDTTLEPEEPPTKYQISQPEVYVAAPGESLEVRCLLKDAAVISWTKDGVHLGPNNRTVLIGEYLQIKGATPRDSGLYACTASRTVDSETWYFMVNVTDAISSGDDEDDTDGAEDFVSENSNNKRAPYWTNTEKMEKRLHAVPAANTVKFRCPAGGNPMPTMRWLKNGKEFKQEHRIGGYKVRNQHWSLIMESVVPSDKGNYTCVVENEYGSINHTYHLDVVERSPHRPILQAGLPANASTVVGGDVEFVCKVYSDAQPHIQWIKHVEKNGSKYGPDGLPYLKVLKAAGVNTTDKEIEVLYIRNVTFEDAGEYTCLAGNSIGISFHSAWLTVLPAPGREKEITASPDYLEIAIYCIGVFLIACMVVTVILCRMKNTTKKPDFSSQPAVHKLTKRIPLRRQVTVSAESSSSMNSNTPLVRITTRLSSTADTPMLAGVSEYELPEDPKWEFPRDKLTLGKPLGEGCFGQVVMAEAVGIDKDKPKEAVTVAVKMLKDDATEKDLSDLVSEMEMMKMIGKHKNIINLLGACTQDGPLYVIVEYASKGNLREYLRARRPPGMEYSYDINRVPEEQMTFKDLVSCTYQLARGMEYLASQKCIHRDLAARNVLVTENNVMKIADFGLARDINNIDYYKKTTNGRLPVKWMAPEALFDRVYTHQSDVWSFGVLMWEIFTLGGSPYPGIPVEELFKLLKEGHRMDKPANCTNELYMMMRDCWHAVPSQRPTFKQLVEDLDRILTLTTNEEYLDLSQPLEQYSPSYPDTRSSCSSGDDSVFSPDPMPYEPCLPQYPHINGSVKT

Structure (SMILES)	pIC50
C#Cc1cc(OC)c(-c2c(C3=CC[C@@H](C(=O)N4CCC[C@H]4C#N)CC3)c3c(C)ncnc3n2C)c(C)n1 [Example 1475]	4.00 to 6.00
C=CC(=O)N1CC(c2c(-c3ccc(C(=O)c4nccc(C)n4)cc3F)c3c(N)ncnc3n2C)C[C@@H]1C (some centres unmarked) [Example 886]	6.00 to 6.60
C#Cc1ncc(-c2c(-c3ccc(Oc4nccc(C)n4)cc3)c3c(N)ncnc3n2C)cn1 [Example 1000]	4.00 to 6.00
C=C(C)C(=O)Nc1ccc(-c2c(C3=CC[C@](C)(C(=O)N4CCCC4)CC3)c3c(N)ncnc3n2C)cc1 [Example 1024]	6.00 to 6.60
C=CC(=O)N[C@H]1Cc2ccc(-c3c(-c4ccc(Oc5nccc(C)n5)cc4)c4c(N)ncnc4n3C)cc2C1 (single isomer, unassigned) [Example 928]	6.00 to 6.60
CC1=CCN(c2ccc(-c3c(-c4ccc(Oc5nccc(C)n5)cc4)c4c(N)ncnc4n3C)cc2)C1=O [Example 924]	4.00 to 6.00
C=CC(=O)N1CC[C@@H](c2c(-c3ccc(Oc4cccc(C)n4)cc3)c3c(N)ncnc3n2C)[C@H]1C (single isomer, unassigned) [Example 940]	4.00 to 6.00
C=C(C)C(=O)Nc1cc(C)c(-c2c(C3=CC[C@H](C(=O)N4CCCC4)CC3)c3c(N)ncnc3n2C)c(C)c1 (single isomer, unassigned) [Example 1486]	4.00 to 6.00
C#Cc1cc(C)c(-c2cn3ncnc(N)c3c2C2=CC[C@@H](C(=O)N3CCC[C@H]3C)CC2)cn1 [Example 1380]	6.00 to 6.60
C#Cc1ncc(-c2c(-c3ccc(C(=O)N4CCCC4)cc3)c3c(N)ncnc3n2C)cn1 [Example 968]	6.00 to 6.60
C=C(C)C(=O)Nc1ccc(-c2c(C3=CC[C@H](C(=O)N4CCCC4)CC3)c3c(N)ncnc3n2C)c(OC)c1 [Example 1480]	4.00 to 6.00
C=Cc1nc2ccc(-c3c(-c4ccc(C(=O)N5CCCC5)cc4)c4c(N)ncnc4n3C)cc2n1C [Example 895]	4.00 to 6.00
C#Cc1cc2ccc(-c3c(-c4ccc(Oc5nccc(C)n5)c(F)c4)c4c(N)ncnc4n3C)cc2cn1 [Example 1404]	6.00 to 6.60
C=C(C)C(=O)Nc1ccc(-c2c(C3=CC[C@@H](C(=O)N4CCC[C@@H]4C)CC3)c3c(N)ncnc3n2C)cc1 [Example 1003]	6.00 to 6.60
C=C(C)C(=O)Nc1ccc(-c2c(-c3ccc(C(=O)N4CCCC4)cc3)c3c(N)n[nH]c(=O)c3n2C)cc1 [Example 879]	4.00 to 6.00

Results, then the molecule that gave them:

pIC50	Structure (SMILES)
> 7.00	C#Cc1cc(C)c(-c2c(-c3ccc(Oc4nccc(C)n4)c(F)c3)c3c(Cl)ncnc3n2C)c(F)n1 [Example 1417]
> 7.00	C#Cc1ncc(-c2c(-c3ccc(Oc4nccc(C)n4)c(F)c3)c3c(N)ncnc3n2C)c(C)n1 [Example 1153]
> 7.00	C#Cc1nc2cc(-c3c(-c4ccc(Oc5nccc(C)n5)c(F)c4)c4c(C)ncnc4n3C)ccc2[nH]1 [Example 1364]
> 7.00	CC(=O)C(=O)Nc1ccc(-c2c(-c3ccc(C(=O)N4CCc5ccccc54)cc3)c3c(N)ncnc3n2C)cc1 [Example 980]
> 7.00	C=CC(=O)Nc1ccc(-c2c(-c3ccc(C(=O)NCC(C)C)cc3)c3c(N)ncnc3n2C)cc1 [Example 990]
> 7.00	C=C(CN(C)C)C(=O)Nc1ccc(-c2c(-c3ccc(C(=O)NCC4(F)COC4)cc3)c3c(N)ncnc3n2C)cc1 [Example 1044]
> 7.00	C=C(C)C(=O)Nc1ccc(-c2c(C3=CC[C@H](C(=O)N4CCCC45COC5)CC3)c3c(N)ncnc3n2C)cc1 (single isomer, unassigned) [Example 913]
6.60 to 7.00	C=CC(=O)NC1CC=C(c2c(-c3ccc(Oc4nccc(C)n4)c(F)c3)c3c(N)ncnc3n2C)CC1 (centres unmarked) [Example 1370]
> 7.00	C#Cc1cnc2cc(-c3c(-c4ccc(Oc5nccc(C)n5)c(F)c4)c4c(N)ncnc4n3C)ccc2n1 [Example 1363]
> 7.00	C#Cc1cc(C)c(-c2c(C3=CC[C@@H](C(=O)N4CCC[C@H]4CO)CC3)c3c(N)ncnc3n2C)cn1 (single isomer, unassigned) [Example 1231]
6.60 to 7.00	C=C1C(=O)N(c2ccc(-c3c(-c4ccc(Oc5nccc(C)n5)cc4)c4c(N)ncnc4n3C)cc2)C[C@@H]1C [Example 1133]
> 7.00	C=C(C)C(=O)Nc1ccc(-c2c(C3=CC[C@@H](C(=O)N4CC[C@@H]5C[C@@H]54)CC3)c3c(N)ncnc3n2C)cc1 [Example 1037]
> 7.00	C#Cc1cc(OC)c(-c2c(C3=CC[C@H](C(=O)N4CCC[C@H]4C#N)CC3)c3c(C)ncnc3n2C)c(C)n1 [Example 1473]
